For 23 molecules, IC50 results are on record in patent US8148404B2, “Modulators of CB1 receptors” (7TM Pharma A/S, priority 2006, dated 2012).

T1 sequence (P21554 whole entry): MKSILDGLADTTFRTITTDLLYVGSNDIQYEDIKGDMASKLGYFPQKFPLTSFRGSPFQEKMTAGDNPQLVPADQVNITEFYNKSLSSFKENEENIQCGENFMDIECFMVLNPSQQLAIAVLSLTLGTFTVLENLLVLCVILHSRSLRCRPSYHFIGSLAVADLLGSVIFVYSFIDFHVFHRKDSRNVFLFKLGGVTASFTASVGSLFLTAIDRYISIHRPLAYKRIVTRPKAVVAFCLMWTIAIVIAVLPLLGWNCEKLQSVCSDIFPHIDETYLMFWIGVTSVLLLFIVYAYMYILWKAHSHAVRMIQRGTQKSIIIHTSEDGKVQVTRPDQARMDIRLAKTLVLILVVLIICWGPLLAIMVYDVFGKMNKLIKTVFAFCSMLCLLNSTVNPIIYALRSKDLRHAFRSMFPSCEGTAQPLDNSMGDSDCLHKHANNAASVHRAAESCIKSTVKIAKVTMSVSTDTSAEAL

The experiment addresses T1, human CB1 receptor (Homo sapiens, UniProt P21554).
T1 construct: expressed in transfected cells; membranes used
Nature of the experiment: Cannabinoid Receptor-1 functional assay: inhibition of CP55940-induced [35S]GTPγS binding to membranes of CHO-K1 cells expressing human CB1. Type of experiment: biochemical. The following applies: 3 nM CP55940, [35S]GTPγS SPA, hCB1 membranes; read-out: IC50 value for antagonizing a CB1 receptor agonist. The source says: Transfection and Cell Culture—The cDNA encoding the human CB1 (Cannabinoid Receptor-1) receptor (GenBank accession number NM_016083) was cloned from a human adipose tissue cDNA library and cloned into the eukaryotic expression vector pcDNA3.1 (Invitrogen).
Chinese Hamster Ovary cells (CHO-K1) stably expressing recombinant human CB1 were generated by transfecting the plasmid containing the coding sequence of the human CB1 receptor in CHO-K1 cells, using lipofectamin, according to the manufacturer instructions. Resistant clones were selected in the presence of 600 μg/ml G418 (Life technology). Stably transfected CHO-K1 cells were maintained in Ham's F-12 culture medium (Invitrogen), supplemented with 10% fetal calf serum (Invitrogen), 100 U/ml penicillin, 100 μg/ml streptomycin (Life Technology), and 600 μg/ml G418.
Functional activities of the above examples of compounds of the invention were assessed in vitro by measuring their ability to inhibit CP55940-induced [^35S]GTPγS binding to membranes prepared from CHO-K1 cells expressing the human CB1 receptor (described in Transfection and Cell Culture). CP55940 is a well known non-selective CB1 and CB2 receptor agonist (e.g Felder et al., 1995, Molecular Pharmacology, (48) 443-50). Membranes were prepared by a standard procedure. Briefly, cells were harvested using 10 mM EDTA and collected by centrifugation. Pelleted cells were homogenized in ice-cold 20 mM Hepes (pH 7.4), 10 mM EDTA and protease inhibitors (Complete protease inhibitor cocktail tablet, Roche) using an Ultra Turrax Homogenizer. The homogenate was centrifuged at 14 000 rpm for 45 min. at 4° C. The resultant pellet was resuspended in the same buffer but with only 0.1 mM EDTA and was again centrifuged at 14 000 rpm for 45 min. at 4° C. The resulting pellet (membranes) was resuspended in 20 mM Hepes (pH 7.4), 0.1 mM EDTA, 2 mM MgCl2 and protease inhibitors and protein concentration was determined by Micro BCA Protein Assay Reagent Kit (Pierce Biotechnology) according to the manufacturer instructions. The [^35S]GTPγS SPA (Scintillation Proximity Assay) binding assay was performed by incubating 5 μg/well hCB1-membranes with 1 nM [^35S]GTPγS (Perkin Elmer—NEG 030H) in the presence of 3 nM of CP55940 and various concentrations of the test compounds at room temperature for 1 hr in 96-well microtiter plates. 0.4 mg/well SPA beads (PVT-WGA; RPNQ0001 Amersham Pharmacia Biotech) were then added and the incubation continued for further 30 min. on an orbital shaker. The assay buffer contained 50 mM HEPES (pH 7.5), 50 mM NaCl, 2.5 mM MgCl2, 0.1% BSA, 1 μM GDP and 100 μg/ml Saponin. Microtiter plates were centrifuged at 1500 rpm for 5 min. and radioactivity was read immediately using a Topcounter (PerkinElmer Life Sciences). Data were analyzed and IC50 values determined by non-linear regression using the Prism software (GraphPad Software, San Diego).
On the technique in general: GTPγS resists hydrolysis and so accumulates on activated G proteins.
As to `CO[C@H]1CN(C(=O)c2nn(-c3ccccc3Cl)c(-c3ccc(Cl)cc3)c2CC(=O)O)CC[C@@H]1c1ccccc1` (relative stereo) [[1.56], {1-(2-Chloro-phenyl)-5-(4-chloro-phenyl)-3-[trans-4-phenyl-3-methoxy-piper-idine-1-carbonyl]-1H-pyrazol-4-yl}-acetic acid], the IC50 is under 0.3 µM. Turning to `O=C(O)Cc1c(C(=O)N2CC=C(c3ccccc3)CC2)nn(-c2ccccc2Cl)c1-c1ccc(Cl)cc1` [Compound [1.1], [1-(2-Chloro-phenyl)-5-(4-chloro-phenyl)-3-(4-phenyl-3,6-dihydro-2H-pyridine-1-carbonyl)-1H-pyrazol-4-yl]-acetic acid], the IC50 was under 0.3 µM. With `O=C(O)Cc1c(C(=O)N2CCN(c3ccccc3)CC2)nn(-c2ccccc2Cl)c1-c1ccc(Cl)cc1` [Compound [1.2], [1-(2-Chloro-phenyl)-5-(4-chloro-phenyl)-3-(4-phenyl-piperazine-1-carbonyl)-1H-pyrazol-4-yl]-acetic acid], the IC50 was 0.3 to 3 µM. For the molecule `O=C(O)COc1c(C(=O)N2CCC(c3ccc(F)cc3)CC2)nn(-c2ccccc2Cl)c1-c1ccc(Cl)cc1` [Compound [1.3], {5-(4-Chloro-phenyl)-1-(2-chloro-phenyl)-3-[4-(4-fluoro-phenyl)-piper-idine-1-carbonyl]-1H-pyrazol-4-yloxy}-acetic acid], the IC50 was under 0.3 µM. In the case of `O=C(O)Cc1c(C(=O)N2CCC(O)(c3cccnc3)CC2)nn(-c2ccccc2Cl)c1-c1ccc(Cl)cc1` [Compound [1.8], [1-(2-Chloro-phenyl)-5-(4-chloro-phenyl)-3-(4′-hydroxy-3′,4′,5′,6′-tetrahydro-2′H-[3,4′]bipyridinyl-1′-carbonyl)-1H-pyrazol-4yl]-acetic acid], the IC50 lay in the range of 3 to 10 µM.

In the case of `O=C(O)Cc1c(C(=O)N2CCC(c3cccc(F)c3)CC2)nn(-c2ccccc2Cl)c1-c1ccc(Cl)cc1` [Compound [1.13], {1-(2-Chloro-phenyl)-5-(4-chloro-phenyl)-3-[4-(3-fluoro-phenyl)-piper-idine-1-carbonyl]-1H-pyrazol-4-yl}-acetic acid], the IC50 is under 0.3 µM.

Consider `CC(C(=O)O)c1c(C(=O)N2CCC(c3ccccc3F)CC2)nn(-c2ccccc2Cl)c1-c1ccc(Cl)cc1` (centres unmarked) [Compound [1.52], 2-{1-(2-Chloro-phenyl)-5-(4-chloro-phenyl)-3-[4-(2-fluoro-phenyl)-piperidine-1-carbonyl]-1H-pyrazol-4-yl}-propionic acid], for which the concentration for half-maximal inhibition (IC50) is under 0.3 µM. Regarding `O=C(O)C(O)c1c(C(=O)N2CCC(c3ccccc3F)CC2)nn(-c2ccccc2Cl)c1-c1ccc(Cl)cc1` (centres unmarked) [Compound [1.65], {1-(2-Chloro-phenyl)-5-(4-chloro-phenyl)-3-[4-(2-fluoro-phenyl)-piperidine-1-carbonyl]-1H-pyrazol-4-yl}-2-hydroxy acetic acid], the IC50 was under 0.3 µM. On to `O=C(c1nn(-c2ccccc2Cl)c(-c2ccc(Cl)cc2)c1Cc1nn[nH]n1)N1Cc2ccc(F)cc2C1` [Compound [3.1], [5-(4-Chloro-phenyl)-1-(2-chloro-phenyl)-4-(2H-tetrazol-5-ylmethyl)-1H-pyrazol-3-yl]-(5-fluoro-1,3-dihydro-isoindol-2-yl)-methanone], for which the IC50 was in the range of 0.3 to 3 µM. Take `O=C(O)Cc1c(C(=O)N2CCc3ccccc3C2)nn(-c2ccccc2Cl)c1-c1ccc(Cl)cc1` [[1.4], [5-(4-Chloro-phenyl)-1-(2-chloro-phenyl)-3-(3,4-dihydro-1H-isoquinoline-2-carbonyl)-1H-pyrazol-4-yl]-acetic acid]: the IC50 is under 0.3 µM. Next, `O=C(O)Cc1c(C(=O)N2CCC(c3ccc(F)cc3)CC2)nn(-c2ccccc2Cl)c1-c1ccc(Cl)cc1` [[1.5], {5-(4-Chloro-phenyl)-1-(2-chloro-phenyl)-3-[4-(4-fluoro-phenyl)-piperidine-1-carbonyl]-1H-pyrazol-4-yl}-acetic acid]: under 0.3 µM; `O=C(O)Cc1c(C(=O)N2CCC(O)(Cc3ccccc3)CC2)nn(-c2ccccc2Cl)c1-c1ccc(Cl)cc1` [[1.6], [3-(4-Benzyl-4-hydroxy-piperidine-1-carbonyl)-5-(4-chloro-phenyl)-1-(2-chloro-phenyl)-1H-pyrazol-4-yl]-acetic acid]: under 0.3 µM; `O=C(O)Cc1c(C(=O)N2CCC(O)(c3ccc(F)cc3)CC2)nn(-c2ccccc2Cl)c1-c1ccc(Cl)cc1` [[1.7], {1-(2-Chloro-phenyl)-5-(4-chloro-phenyl)-3-[4-(4-fluoro-phenyl)-4-hydroxy-piperidine-1-carbonyl]-1H-pyrazol-4-yl}-acetic acid]: under 0.3 µM.

For `O=C(O)Cc1c(C(=O)N2CCC(O)(c3ccccn3)CC2)nn(-c2ccccc2Cl)c1-c1ccc(Cl)cc1` [[1.9], [1-(2-Chloro-phenyl)-5-(4-chloro-phenyl)-3-(4′-hydroxy-3′,4′,5′,6′-tetrahydro-2′H-[2,4′]bipyridinyl-1′-carbonyl)-1H-pyrazol-4yl]-acetic acid], the IC50 lay in the range of 0.3 to 3 µM. Take `O=C(O)Cc1c(C(=O)N2CCC(O)(c3ccc(C(F)(F)F)cc3)CC2)nn(-c2ccccc2Cl)c1-c1ccc(Cl)cc1` [[1.10], {1-(2-Chloro-phenyl)-5-(4-chloro-phenyl)-3-[4-hydroxy-4-(4-trifluoromethyl-phenyl)-piperidine-1-carbonyl]-1H-pyrazol-4-yl}-acetic acid]: the 50% inhibitory concentration (IC50) is under 0.3 µM. To `O=C(O)Cc1c(C(=O)N2CCC(O)(c3cccc(C(F)(F)F)c3)CC2)nn(-c2ccccc2Cl)c1-c1ccc(Cl)cc1` [[1.11], {1-(2-Chloro-phenyl)-5-(4-chloro-phenyl)-3-[4-hydroxy-4-(3-trifluoromethyl-phenyl)-piperidine-1-carbonyl]-1H-pyrazol-4-yl}-acetic acid] belongs under 0.3 µM; to `O=C(O)Cc1c(C(=O)N2CCC(O)(c3ccc(Cl)cc3)CC2)nn(-c2ccccc2Cl)c1-c1ccc(Cl)cc1` [[1.12], {1-(2-Chloro-phenyl)-5-(4-chloro-phenyl)-3-[4-(4-chloro-phenyl)-4-hydroxy-piperidine-1carbonyl]-1H-pyrazol-4-yl}-acetic acid], under 0.3 µM; to `O=C(O)Cc1c(C(=O)N2CCC(O)(c3ccccc3)CC2)nn(-c2ccccc2Cl)c1-c1ccc(Cl)cc1` [[1.14], [1-(2-Chloro-phenyl)-5-(4-chloro-phenyl)-3-(4-hydroxy-4-phenyl-piperidine-1-carbonyl)-1H-pyrazol-4-yl]-acetic acid], under 0.3 µM. Next, `O=C(O)Cc1c(C(=O)N2CCC(c3ccc(F)cc3)C2)nn(-c2ccccc2Cl)c1-c1ccc(Cl)cc1` (centres unmarked) [[1.15], {1-(2-Chloro-phenyl)-5-(4-chloro-phenyl)-3-[3-(4-fluoro-phenyl)-pyrrol-idine-1-carbonyl]-1H-pyrazol-4-yl}-acetic acid]: under 0.3 µM.

With `O=C(O)Cc1c(C(=O)N2CCN(c3ncccn3)CC2)nn(-c2ccccc2Cl)c1-c1ccc(Cl)cc1` [[1.16], [5-(4-Chloro-phenyl)-1-(2-chloro-phenyl)-3-(4-pyrimidin-2-yl-piperazine-1-carbonyl)-1H-pyrazol-4-yl]-acetic acid], the IC50 is 0.3 to 3 µM. To `COC1(c2ccc(F)cc2)CCN(C(=O)c2nn(-c3ccccc3Cl)c(-c3ccc(Cl)cc3)c2CC(=O)O)CC1` [[1.17], {5-(4-Chloro-phenyl)-1-(2-chloro-phenyl)-3-[4-(4-fluoro-phenyl)-4-methoxy-piperidine-1carbonyl]-1H-pyrazol-4-yl}-acetic acid] belongs under 0.3 µM; to `Cc1noc(C2CCN(C(=O)c3nn(-c4ccccc4Cl)c(-c4ccc(Cl)cc4)c3CC(=O)O)CC2)n1` [[1.20], {1-(2-Chloro-phenyl)-5-(4-chloro-phenyl)-3-[4-(3-methyl-[1,2,4]oxadiazol-5-yl)-piperidine-1-carbonyl]-1H-pyrazol-4-yl}-acetic acid], 0.3 to 3 µM. Take `O=C(O)Cc1c(C(=O)N2CCC(O)(c3ccccc3F)CC2)nn(-c2ccccc2Cl)c1-c1ccc(Cl)cc1` [[1.21], {1-(2-Chloro-phenyl)-5-(4-chloro-phenyl)-3-[4-(2-fluoro-phenyl)-4-hydroxy-piperidine-1carbonyl]-1H-pyrazol-4-yl}-acetic acid]: the IC50 was under 0.3 µM.

For orientation: IC50 means the concentration that inhibits the measured activity by half.
